Laboratory results: ChEMBL document CHEMBL1201862, “PubChem BioAssay data set” (2004)
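Values below derive from 48-hour exposures of cells grown in 96-well plates, with endpoints linearly interpolated between the two concentrations bracketing the appropriate inhibition level. GI50 marks 50% less growth.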 The source made the active and inactive calls. Rule as the data show it: active = GI50 up to about 1.1 µM and inactive = higher.

Experiments:
Assay in all cases: inhibition of tumour cell growth, NCI panel, 48 h
DMS-114 = test system: DMS-114
KM-20L2 = test system: KM-20L2
LXFL 529 = test system: LXFL 529
DMS-273 = test system: DMS-273
HOP-18 = test system: HOP-18
XF498 = test system: XF498
RXF 631 = test system: RXF 631
DLD-1 = test system: DLD-1
M19-MEL = test system: M19-MEL

## COc1cc(/C=C\c2ccccc2)cc(OC)c1OC
DMS-114
  GI50: 3.06 µM (inactive)
KM-20L2
  GI50: 1.64 µM (inactive)
LXFL 529
  GI50: 6.56 µM (inactive)
DMS-273
  GI50: 1.24 µM (inactive)
HOP-18
  GI50: > 36.8 µM (inactive)
XF498
  GI50: 3.9 µM (inactive)
RXF 631
  GI50: 8.87 µM (inactive)
DLD-1
  GI50: 3.19 µM (inactive)
M19-MEL
  GI50: 5.31 µM (inactive)

## CC(c1ccc(Br)cc1)C(C(=O)O)C(=O)O (stereo unspecified)
DMS-114
  GI50: > 100 µM (inactive)
KM-20L2
  GI50: > 100 µM (inactive)
LXFL 529
  GI50: > 100 µM (inactive)
DMS-273
  GI50: > 100 µM (inactive)
HOP-18
  GI50: > 100 µM (inactive)
DLD-1
  GI50: > 100 µM (inactive)
M19-MEL
  GI50: > 100 µM (inactive)

## O=[N+]([O-])C1(CO)COC2(OC1)c1ccccc1-c1ccccc12
DMS-114
  GI50: > 100 µM (inactive)
KM-20L2
  GI50: > 100 µM (inactive)
LXFL 529
  GI50: > 100 µM (inactive)
DMS-273
  GI50: > 100 µM (inactive)
HOP-18
  GI50: > 100 µM (inactive)
RXF 631
  GI50: > 100 µM (inactive)
DLD-1
  GI50: 36 µM (inactive)
M19-MEL
  GI50: > 100 µM (inactive)

## CN1/C(=C/C(=O)c2ccc(Cl)cc2)Nc2ccccc21
KM-20L2
  GI50: 29.2 µM (inactive)
LXFL 529
  GI50: 33.2 µM (inactive)
XF498
  GI50: 60.3 µM (inactive)
RXF 631
  GI50: 43.3 µM (inactive)
DLD-1
  GI50: 37.4 µM (inactive)
M19-MEL
  GI50: 38.2 µM (inactive)

## C#CCN(N=O)C(=O)NCCCC(NC(C)=O)C(=O)NCc1ccccc1 (stereo unspecified)
DMS-114
  GI50: > 100 µM (inactive)
KM-20L2
  GI50: > 100 µM (inactive)
LXFL 529
  GI50: > 100 µM (inactive)
HOP-18
  GI50: > 100 µM (inactive)
XF498
  GI50: 0.0526 µM (active)
RXF 631
  GI50: > 100 µM (inactive)
DLD-1
  GI50: > 100 µM (inactive)
M19-MEL
  GI50: > 100 µM (inactive)

## CCCCCCCC(=O)OC(CBr)COC(=O)C(C)(C)C (stereo unspecified)
DMS-114
  GI50: > 77.1 µM (inactive)
KM-20L2
  GI50: > 100 µM (inactive)
LXFL 529
  GI50: > 100 µM (inactive)
DMS-273
  GI50: > 84.5 µM (inactive)
HOP-18
  GI50: > 100 µM (inactive)
XF498
  GI50: > 100 µM (inactive)
RXF 631
  GI50: > 100 µM (inactive)
DLD-1
  GI50: > 100 µM (inactive)
M19-MEL
  GI50: > 84.1 µM (inactive)

## O=[N+]([O-])c1cccc2nc3ccccc3c(NCCN(CCO)CCO)c12
KM-20L2
  GI50: 0.00509 µM (active)
LXFL 529
  GI50: 0.0187 µM (active)
DMS-273
  GI50: 0.012 µM (active)
HOP-18
  GI50: 0.0443 µM (active)
XF498
  GI50: 0.00512 µM (active)
RXF 631
  GI50: 0.00457 µM (active)
DLD-1
  GI50: 0.0069 µM (active)

## c1coc(CNc2[nH]cnc3nncc2-3)c1
DMS-114
  GI50: 44.5 µM (inactive)
KM-20L2
  GI50: > 100 µM (inactive)
LXFL 529
  GI50: > 100 µM (inactive)
DMS-273
  GI50: > 100 µM (inactive)
XF498
  GI50: > 100 µM (inactive)
RXF 631
  GI50: > 100 µM (inactive)
DLD-1
  GI50: > 100 µM (inactive)
M19-MEL
  GI50: > 100 µM (inactive)

## OCC[N+]12CCCN1CCC2
DMS-114
  GI50: > 100 µM (inactive)
KM-20L2
  GI50: > 100 µM (inactive)
LXFL 529
  GI50: > 100 µM (inactive)
DMS-273
  GI50: > 100 µM (inactive)
HOP-18
  GI50: > 100 µM (inactive)
DLD-1
  GI50: > 100 µM (inactive)
M19-MEL
  GI50: > 100 µM (inactive)

## CC(C)=CC(=O)c1c(C(=O)O)nc2ccccc2[n+]1[O-]
DMS-114
  GI50: > 100 µM (inactive)
KM-20L2
  GI50: > 100 µM (inactive)
LXFL 529
  GI50: > 100 µM (inactive)
DMS-273
  GI50: > 100 µM (inactive)
RXF 631
  GI50: > 100 µM (inactive)
DLD-1
  GI50: > 100 µM (inactive)
M19-MEL
  GI50: > 100 µM (inactive)

## COc1cc2c(cc1C1=NC(C)(C)CO1)OCO2
DMS-114
  GI50: > 100 µM (inactive)
KM-20L2
  GI50: > 100 µM (inactive)
LXFL 529
  GI50: > 100 µM (inactive)
HOP-18
  GI50: > 100 µM (inactive)
XF498
  GI50: > 100 µM (inactive)
RXF 631
  GI50: > 100 µM (inactive)
DLD-1
  GI50: > 100 µM (inactive)
M19-MEL
  GI50: > 100 µM (inactive)

## O=C1C=C(Br)C(=O)C(Br)=C1
DMS-114
  GI50: > 72.4 µM (inactive)
KM-20L2
  GI50: > 100 µM (inactive)
LXFL 529
  GI50: 54.5 µM (inactive)
DMS-273
  GI50: > 100 µM (inactive)
HOP-18
  GI50: > 100 µM (inactive)
XF498
  GI50: > 100 µM (inactive)
RXF 631
  GI50: > 100 µM (inactive)
DLD-1
  GI50: > 96.6 µM (inactive)
M19-MEL
  GI50: > 53.5 µM (inactive)

## CN1c2c(O)nc(N)nc2NCC1CCNc1ccc(C(=O)NC(CCC(=O)O)C(=O)O)cc1 (stereo unspecified)
DMS-114
  GI50: 294 µM (inactive)
KM-20L2
  GI50: 573 µM (inactive)
DMS-273
  GI50: 15.1 µM (inactive)
HOP-18
  GI50: 1550 µM (inactive)
XF498
  GI50: 394 µM (inactive)
DLD-1
  GI50: 891 µM (inactive)
M19-MEL
  GI50: 222 µM (inactive)

## COc1cccc(OC)c1/C=N\N1C(=O)c2ccccc2C1=O
DMS-114
  GI50: 31.6 µM (inactive)
KM-20L2
  GI50: 19.2 µM (inactive)
LXFL 529
  GI50: 40.7 µM (inactive)
DMS-273
  GI50: 21.1 µM (inactive)
HOP-18
  GI50: > 100 µM (inactive)
XF498
  GI50: 28.6 µM (inactive)
RXF 631
  GI50: 29.4 µM (inactive)
DLD-1
  GI50: 49 µM (inactive)
M19-MEL
  GI50: 48.4 µM (inactive)

## COc1ccc(/C(=N/NC(=O)NN)C(c2ccc(OC)cc2)C2(O)CNc3c(Cl)cc(Cl)cc32)cc1 (stereo unspecified)
DMS-114
  GI50: 71.8 µM (inactive)
KM-20L2
  GI50: > 100 µM (inactive)
LXFL 529
  GI50: 65.6 µM (inactive)
HOP-18
  GI50: 53.2 µM (inactive)
RXF 631
  GI50: 48.3 µM (inactive)
DLD-1
  GI50: > 100 µM (inactive)
M19-MEL
  GI50: > 100 µM (inactive)

## CN1S(=O)(=O)N(C)P12(N=P(CP(=NP13(N(C)S(=O)(=O)N1C)N(C)S(=O)(=O)N3C)(c1ccccc1)c1ccccc1)(c1ccccc1)c1ccccc1)N(C)S(=O)(=O)N2C
DMS-114
  GI50: > 100 µM (inactive)
KM-20L2
  GI50: > 100 µM (inactive)
LXFL 529
  GI50: > 100 µM (inactive)
DMS-273
  GI50: > 100 µM (inactive)
HOP-18
  GI50: > 100 µM (inactive)
XF498
  GI50: > 100 µM (inactive)
RXF 631
  GI50: > 100 µM (inactive)
DLD-1
  GI50: > 100 µM (inactive)
M19-MEL
  GI50: > 100 µM (inactive)

## Cc1ccc(S(=O)(=O)NC(=O)C2S(=O)(=O)OCCOS2(=O)=O)cc1
LXFL 529
  GI50: > 100 µM (inactive)
DMS-273
  GI50: > 100 µM (inactive)
XF498
  GI50: > 100 µM (inactive)
RXF 631
  GI50: > 100 µM (inactive)
DLD-1
  GI50: > 100 µM (inactive)
M19-MEL
  GI50: > 100 µM (inactive)

## COc1ccc(/C=C2\CCC(CN(C)C)C2=O)cc1OC (stereo unspecified)
DMS-114
  GI50: 12.5 µM (inactive)
KM-20L2
  GI50: 12.8 µM (inactive)
LXFL 529
  GI50: 2.43 µM (inactive)
DMS-273
  GI50: 14.4 µM (inactive)
HOP-18
  GI50: 20.8 µM (inactive)
XF498
  GI50: 13.5 µM (inactive)
RXF 631
  GI50: 6.84 µM (inactive)
DLD-1
  GI50: 2.69 µM (inactive)
M19-MEL
  GI50: 7 µM (inactive)

## COc1ccc(N2C(=O)C3c4[nH]c5ccccc5c4C4CCCCCCCCCCC4C3C2=O)cc1 (stereo unspecified)
DMS-114
  GI50: 18 µM (inactive)
KM-20L2
  GI50: 3.15 µM (inactive)
LXFL 529
  GI50: 6.93 µM (inactive)
DMS-273
  GI50: 6.31 µM (inactive)
HOP-18
  GI50: 3.03 µM (inactive)
XF498
  GI50: 12.9 µM (inactive)
DLD-1
  GI50: 8.77 µM (inactive)
M19-MEL
  GI50: 25.1 µM (inactive)

## Cc1ccc(C(=O)O/N=C2/CCC/C2=C\c2ccccc2)cc1
DMS-114
  GI50: > 100 µM (inactive)
KM-20L2
  GI50: > 100 µM (inactive)
LXFL 529
  GI50: > 100 µM (inactive)
DMS-273
  GI50: > 100 µM (inactive)
HOP-18
  GI50: > 100 µM (inactive)
DLD-1
  GI50: > 100 µM (inactive)
M19-MEL
  GI50: > 100 µM (inactive)

## CN(C)c1ccc(/C=c2\sc3nnc(-c4cccnc4)n3c2=O)cc1
DMS-114
  GI50: > 100 µM (inactive)
KM-20L2
  GI50: > 100 µM (inactive)
LXFL 529
  GI50: > 100 µM (inactive)
DMS-273
  GI50: > 100 µM (inactive)
HOP-18
  GI50: > 100 µM (inactive)
XF498
  GI50: > 100 µM (inactive)
DLD-1
  GI50: > 100 µM (inactive)
M19-MEL
  GI50: > 100 µM (inactive)

## CCCCCCCCCCCCCCCCCC(=O)NCC(COP(=O)(O)O)OCC (stereo unspecified)
DMS-114
  GI50: 33.6 µM (inactive)
LXFL 529
  GI50: > 100 µM (inactive)
DMS-273
  GI50: 77.1 µM (inactive)
XF498
  GI50: 51.8 µM (inactive)
RXF 631
  GI50: 25.8 µM (inactive)
DLD-1
  GI50: > 100 µM (inactive)
M19-MEL
  GI50: > 100 µM (inactive)

## COc1ccc(/C=C/C(=O)c2sc(Nc3ccc([N+](=O)[O-])cc3)nc2C)cc1
DMS-114
  GI50: 31.3 µM (inactive)
KM-20L2
  GI50: 48.6 µM (inactive)
DMS-273
  GI50: 41.1 µM (inactive)
HOP-18
  GI50: 78.2 µM (inactive)
RXF 631
  GI50: 34.2 µM (inactive)
DLD-1
  GI50: 29.1 µM (inactive)
M19-MEL
  GI50: 53.1 µM (inactive)

## N#C/C(=C1\SC(/N=N/c2ccc(Cl)cc2)C(=O)N1c1ccccc1)c1nc2ccccc2[nH]1 (stereo unspecified)
KM-20L2
  GI50: > 100 µM (inactive)
LXFL 529
  GI50: 24.6 µM (inactive)
DMS-273
  GI50: 36.8 µM (inactive)
XF498
  GI50: 31.3 µM (inactive)
DLD-1
  GI50: > 100 µM (inactive)
M19-MEL
  GI50: 28.1 µM (inactive)

## C=CC[P@@]1(=O)O[C@H](c2ccccc2)C(C)N1C(C)C (stereo partly specified)
DMS-114
  GI50: > 100 µM (inactive)
LXFL 529
  GI50: > 100 µM (inactive)
DMS-273
  GI50: > 100 µM (inactive)
HOP-18
  GI50: > 100 µM (inactive)
XF498
  GI50: > 100 µM (inactive)
RXF 631
  GI50: > 100 µM (inactive)
DLD-1
  GI50: > 100 µM (inactive)
M19-MEL
  GI50: > 100 µM (inactive)
